# Legend:
# [1] = assay type: physicochemical; conditions: urea + 10.5% ES + 500 ppm nBTPT as Amiplus liquid (Exp. H-M); open pots in nissenhut; measured after 28 days (ranking given as after 14 days)
# Protocol: (§1) 1.2 kg of solid fertilizer material was added to a lab scale drum. In a next step, the nBTPT material was slowly added and subsequently followed, if applied, by an alkaline or alkaline-forming inorganic or organic compound. A residence time of 10 minutes was applied and the rotating speed of the drum was consequently the same in each experiment. In case a moisture-repellent coating was added, a nebulizer was used and, depending on the order of addition, the moisture-repellent coating was added before or after addition of the nBTPT material. Before use, the moisture-repellent coating was preheated to 80° C.
# Typically, a day/night cycle is generated in the nissenhut, with temperature fluctuations between 0 to 42° C. and fluctuations of relative humidity between 20 and 90%, which can be compared with real life storage in silos.
# The samples were stored 28 days in open pots in nissenhut.
# The samples were stored for 28 days in open pots in nissenhut.
# [2] = Accelerated storage stability of nBTPT on fertilizer granules (HPLC analysis of nBTPT content); assay type: physicochemical; conditions: nBTPT formulations (500 ppm powder or Agrotain Ultra) applied onto urea comprising 9% elemental sulphur (samples B, C); 12 days at 70° C. in closed plastic container
# Protocol: as §1
# For some samples, an accelerated stability test was done after storing these samples at elevated temperatures: • Oven of 30° C., open to air • 70° C. in a closed plastic container
# HPLC analysis of nBTPT is done as described in the procedure CEN 15688-2007.
# This set of samples was stored at room temperature (20-25° C.) in bags and at elevated temperature (30° C. and 70° C., accelerated stability test).
SMILES,effectivity of the stabilizers (ranking) on stability of nBTPT [1],nBTPT level after storage [2] [weight %]
"O=C([O-])[O-].[Ca+2] [CaCO3, calcium carbonate]",CaCO3═MgO>CaO>ZnO>Et3N>no stabilizer,
"[O]=[Mg] [MgO, magnesium oxide]",CaCO3═MgO>CaO>ZnO>Et3N>no stabilizer,
"[O]=[Zn] [ZnO, zinc oxide]",CaCO3═MgO>CaO>ZnO>Et3N>no stabilizer,
"[O]=[Ca] [CaO, calcium oxide]",CaCO3═MgO>CaO>ZnO>Et3N>no stabilizer,
"CCCCNP(N)(N)=S [nBTPT, N-(n-butyl) thiophosphoric triamide]",,0
